Several values for one entry are separate records, joined by “and”; a condition that tells them apart may be missing. Equal entries are not always repeated. Inconclusive results and toxic doses are left out. Cut-off read from the data, not from the text of the source: active = T/C of 150% or more; inactive = T/C below 125%.
Tested on: L1210 leukemia ip in BDF1 mice, survival T/C
Test: NCI In Vivo Anticancer Drug Screen. Data for tumor model L1210 Leukemia (intraperitoneal) in B6D2F1 (BDF1) mice
Settings: endpoint: mean survival time, higher = longer survival
Summary of the method: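 Antitumor effect is assessed in tumor-bearing animals. Survival in the compound arm is compared with a vehicle-dosed control arm and expressed as their quotient.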

[1] = dose: 50.0 mg/kg/injection, schedule: Q01DX009 (ip), vehicle: Klucel (hydroxypropylcellulose) (HPC)
[2] = dose: 100.0 mg/kg/injection, schedule: Q01DX009 (ip), vehicle: Klucel (hydroxypropylcellulose) (HPC)
[3] = dose: 100.0 mg/kg/injection, schedule: Q04DX003 (ip), vehicle: Klucel (hydroxypropylcellulose) (HPC)
[4] = dose: 100.0 mg/kg/injection, schedule: Q04DX002 (ip), vehicle: Klucel (hydroxypropylcellulose) (HPC)
[5] = dose: 200.0 mg/kg/injection, schedule: Q01DX009 (ip), vehicle: Klucel (hydroxypropylcellulose) (HPC)
[6] = dose: 200.0 mg/kg/injection, schedule: Q04DX002 (ip), vehicle: Klucel (hydroxypropylcellulose) (HPC)
[7] = dose: 400.0 mg/kg/injection, schedule: Q01DX009 (ip), vehicle: Klucel (hydroxypropylcellulose) (HPC)
[8] = dose: 400.0 mg/kg/injection, schedule: Q04DX002 (ip), vehicle: Klucel (hydroxypropylcellulose) (HPC)
[9] = dose: 100.0 mg/kg/injection, schedule: Q01DX009 (ip), vehicle: saline with Tween-80
[10] = dose: 100.0 mg/kg/injection, schedule: Q01DX001 (ip), vehicle: saline
[11] = dose: 200.0 mg/kg/injection, schedule: Q01DX001 (ip), vehicle: saline
[12] = dose: 400.0 mg/kg/injection, schedule: Q01DX001 (ip), vehicle: saline
[13] = dose: 100.0 mg/kg/injection, schedule: Q01DX001 (ip), vehicle: carboxymethylcellulose (CMC)
[14] = dose: 200.0 mg/kg/injection, schedule: Q01DX001 (ip), vehicle: carboxymethylcellulose (CMC)
[15] = dose: 400.0 mg/kg/injection, schedule: Q01DX001 (ip), vehicle: carboxymethylcellulose (CMC)
[16] = dose: 100.0 mg/kg/injection, schedule: Q01DX001 (ip), vehicle: Klucel (hydroxypropylcellulose) (HPC)
[17] = dose: 200.0 mg/kg/injection, schedule: Q01DX001 (ip), vehicle: Klucel (hydroxypropylcellulose) (HPC)
[18] = dose: 200.0 mg/kg/injection, schedule: Q04DX003 (ip), vehicle: Klucel (hydroxypropylcellulose) (HPC)
[19] = dose: 400.0 mg/kg/injection, schedule: Q04DX003 (ip), vehicle: Klucel (hydroxypropylcellulose) (HPC)

Measured: T/C

C[CH2][Sn]([CH2]C)([O]S(C)(=O)=O)[O]S(C)(=O)=O
inactive: dose: 0.78 mg/kg/injection, schedule: Q01DX009 (ip), vehicle: saline 95 % of control | dose: 1.56 mg/kg/injection, schedule: Q01DX009 (ip), vehicle: saline 98 % of control | dose: 3.12 mg/kg/injection, schedule: Q01DX009 (ip), vehicle: saline 106 % of control | dose: 6.25 mg/kg/injection, schedule: Q01DX009 (ip), vehicle: saline 116 % of control | dose: 12.5 mg/kg/injection, schedule: Q01DX009 (ip), vehicle: saline 102 % of control

CC(=O)OS(C)(=O)=O
inactive: [1] 100 % of control | [2] 100 % of control | [3] 105 % of control

COc1ccc(C(=O)CC(Sc2ccccc2N)c2ccc(OC)cc2)cc1 (stereo not given)
inactive: [2] 87 % of control | [4] 98 % of control | [5] 91 % of control | [6] 95 % of control | [7] 87 % of control | [8] 113 % of control

CCOP(=O)(OCC)C(CC=C(C)C)C(C)=O (stereo not given)
inactive: dose: 50.0 mg/kg/injection, schedule: Q01DX009 (ip), vehicle: saline with Tween-80 100 % of control | [9] 94 % of control | dose: 200.0 mg/kg/injection, schedule: Q01DX009 (ip), vehicle: saline with Tween-80 88 % of control

COc1cc2c(O)cc(C(=O)OC(C)(C)C)c(-c3cc(OC)c(OC)c(OC)c3)c2cc1OC
inactive: [10] 97 % of control | [11] 95 % of control | [12] 89 % of control

CCOC(=O)C1CN(C(C)(C)C)C(=O)C1=O (stereo not given)
inactive: dose: 50.0 mg/kg/injection, schedule: Q01DX001 (ip), vehicle: saline 106 % of control | [10] 102 % of control | [11] 108 % of control | [12] 100 % of control

Cc1nccnc1N/N=C\c1ccc(N(CCCl)CCCl)cc1
inactive: [13] 104 % of control | [14] 96 % of control | [15] 93 % of control

O=[N+]([O-])c1ccn(O)c(=Nc2ccccc2)c1
inactive: [10] 108 % of control | [11] 104 % of control | [12] 100 % of control

O=C(CI)Nc1ccc(O)c2ccccc12
inactive: dose: 3.12 mg/kg/injection, schedule: Q04DX003 (ip), vehicle: water 111 % of control and 86 % of control | dose: 6.25 mg/kg/injection, schedule: Q01DX009 (ip), vehicle: water 99 % of control | dose: 6.25 mg/kg/injection, schedule: Q04DX003 (ip), vehicle: water 121 % of control and 91 % of control | dose: 12.5 mg/kg/injection, schedule: Q01DX009 (ip), vehicle: water 86 % of control | dose: 75.0 mg/kg/injection, schedule: Q04DX003 (ip), vehicle: water 93 % of control

COS(=O)c1ccccc1C(=O)NOCc1ccccc1 (stereo not given)
inactive: dose: 50.0 mg/kg/injection, schedule: Q01DX001 (ip), vehicle: Klucel (hydroxypropylcellulose) (HPC) 103 % of control | [16] 100 % of control | [17] 107 % of control

O=C(O)C1CC(c2ccccc2)=NN1c1ccccc1 (stereo not given)
inactive: [16] 104 % of control | [17] 90 % of control | dose: 400.0 mg/kg/injection, schedule: Q01DX001 (ip), vehicle: Klucel (hydroxypropylcellulose) (HPC) 93 % of control

CC(C)Cc1ccccc1
inactive: [2] 106 % of control | [3] 110 % of control | [5] 100 % of control | [18] 96 % of control | [7] 122 % of control | [19] 96 % of control

Cc1c2c(c(C)c3c1[nH]c1ccccc13)CCN=C2
inactive: dose: 50.0 mg/kg/injection, schedule: Q01DX001 (ip), vehicle: carboxymethylcellulose (CMC) 104 % of control | [13] 114 % of control | [14] 104 % of control | [15] 111 % of control

CCOC(=O)C[n+]1ccccc1C
inactive: dose: 50.0 mg/kg/injection, schedule: Q04DX002 (ip), vehicle: saline 90 % of control | dose: 100.0 mg/kg/injection, schedule: Q04DX002 (ip), vehicle: saline 97 % of control | dose: 200.0 mg/kg/injection, schedule: Q04DX002 (ip), vehicle: saline 93 % of control

O=C(NCc1ccco1)NCc1ccco1
inactive: dose: 25.0 mg/kg/injection, schedule: Q01DX009 (ip), vehicle: Klucel (hydroxypropylcellulose) (HPC) 91 % of control | dose: 25.0 mg/kg/injection, schedule: Q04DX003 (ip), vehicle: Klucel (hydroxypropylcellulose) (HPC) 103 % of control | [1] 96 % of control | dose: 50.0 mg/kg/injection, schedule: Q04DX003 (ip), vehicle: Klucel (hydroxypropylcellulose) (HPC) 97 % of control | [3] 98 % of control and 101 % of control

CC(C)=COC(=N)C(N)=O
inactive: dose: 100.0 mg/kg/injection, schedule: Q04DX003 (ip), vehicle: other 100 % of control | dose: 200.0 mg/kg/injection, schedule: Q04DX003 (ip), vehicle: other 97 % of control | dose: 400.0 mg/kg/injection, schedule: Q04DX003 (ip), vehicle: other 115 % of control

O=C(Nc1ccc(NC2=NCCN2)cc1)c1ccc(C(=O)Nc2ccc(NC3=NCCN3)cc2)c([N+](=O)[O-])c1
inactive: dose: 1.88 mg/kg/injection, schedule: Q01DX Z (ip), vehicle: saline 92 % of control | dose: 3.75 mg/kg/injection, schedule: Q01DX Z (ip), vehicle: saline 97 % of control | dose: 7.5 mg/kg/injection, schedule: Q01DX Z (ip), vehicle: saline 106 % of control | dose: 7.5 mg/kg/injection, schedule: Q01DX Z (oral), vehicle: saline 94 % of control | dose: 15.0 mg/kg/injection, schedule: Q01DX Z (ip), vehicle: saline 110 % of control and 89 % of control | dose: 15.0 mg/kg/injection, schedule: Q01DX Z (oral), vehicle: saline 95 % of control | dose: 30.0 mg/kg/injection, schedule: Q01DX Z (oral), vehicle: saline 91 % of control | dose: 60.0 mg/kg/injection, schedule: Q01DX Z (oral), vehicle: saline 100 % of control

O=C(N/N=C/c1ccc(O)cc1O)c1ccc(O)cc1
inactive: [4] 92 % of control | [6] 103 % of control | [8] 103 % of control

O=c1[nH]cnc2nc(SCc3ccccc3NCBr)[nH]c12
inactive: dose: 31.3 mg/kg/injection, schedule: Q04DX002 (ip), vehicle: Klucel (hydroxypropylcellulose) (HPC) 91 % of control | dose: 62.5 mg/kg/injection, schedule: Q04DX002 (ip), vehicle: Klucel (hydroxypropylcellulose) (HPC) 91 % of control | dose: 125.0 mg/kg/injection, schedule: Q04DX002 (ip), vehicle: Klucel (hydroxypropylcellulose) (HPC) 88 % of control

N#CCc1cn(-c2ccccc2)nn1
inactive: dose: 9.38 mg/kg/injection, schedule: Q01DX001 (ip), vehicle: other 101 % of control | dose: 18.75 mg/kg/injection, schedule: Q01DX001 (ip), vehicle: other 96 % of control | dose: 37.5 mg/kg/injection, schedule: Q01DX001 (ip), vehicle: other 97 % of control

CCN(CC)S(=O)(=O)c1cccc([N+](=O)[O-])c1
inactive: [9] 99 % of control

CN(C(=O)N(C)S(=O)(=O)c1ccccc1)S(=O)(=O)c1ccccc1
inactive: dose: 75.0 mg/kg/injection, schedule: Q04DX003 (ip), vehicle: Klucel (hydroxypropylcellulose) (HPC) 100 % of control | dose: 150.0 mg/kg/injection, schedule: Q04DX003 (ip), vehicle: Klucel (hydroxypropylcellulose) (HPC) 101 % of control | dose: 300.0 mg/kg/injection, schedule: Q04DX003 (ip), vehicle: Klucel (hydroxypropylcellulose) (HPC) 94 % of control

O=C(Nc1ccccc1)Nc1cc(Cl)ccc1Cl
inactive: dose: 25.0 mg/kg/injection, schedule: Q04DX002 (ip), vehicle: Klucel (hydroxypropylcellulose) (HPC) 107 % of control | dose: 50.0 mg/kg/injection, schedule: Q04DX002 (ip), vehicle: Klucel (hydroxypropylcellulose) (HPC) 90 % of control | [4] 90 % of control

COC(=O)N/N=C/c1ccccc1OC
inactive: [4] 104 % of control | [6] 104 % of control | [8] 93 % of control

CCCC(=O)C(C)C(=O)C(F)(F)F.CCCC(=O)C(C)C(=O)C(F)(F)F.CCCC(=O)C(C)C(=O)C(F)(F)F.[Er] (stereo not given)
inactive: [2] 116 % of control | [3] 98 % of control | [5] 102 % of control | [18] 94 % of control | [7] 113 % of control | [19] 94 % of control
